Active and inactive are the calls of the source.
Legend:
[1] = biological target: T1, Microphthalmia-associated transcription factor (Homo sapiens, UniProt O75030); experiment: reducers of TRPM1 reporter luminescence, concentration series – cell-based, SK-MEL-5, cherry-picked, set 3, MITF inhibitor project, dose response (AID 493073); assay type: functional;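 note: SK-MEL-5 melanoma cells with luciferase driven by the MITF target TRPM1 promoter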
T1 sequence (O75030 whole entry): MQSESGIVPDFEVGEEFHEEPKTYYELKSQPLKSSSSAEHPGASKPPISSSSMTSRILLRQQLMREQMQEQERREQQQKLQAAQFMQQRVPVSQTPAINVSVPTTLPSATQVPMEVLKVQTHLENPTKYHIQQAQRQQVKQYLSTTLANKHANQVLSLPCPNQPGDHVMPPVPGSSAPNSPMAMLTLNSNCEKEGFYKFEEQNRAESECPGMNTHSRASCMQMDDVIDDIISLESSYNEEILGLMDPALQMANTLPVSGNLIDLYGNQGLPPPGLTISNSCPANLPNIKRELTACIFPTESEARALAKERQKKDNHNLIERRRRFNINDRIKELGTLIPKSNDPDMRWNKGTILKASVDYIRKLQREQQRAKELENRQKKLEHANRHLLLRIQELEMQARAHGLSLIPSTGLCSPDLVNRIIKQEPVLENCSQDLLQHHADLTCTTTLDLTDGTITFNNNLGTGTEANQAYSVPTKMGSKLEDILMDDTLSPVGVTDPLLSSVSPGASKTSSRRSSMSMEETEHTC

Cytochrome P450 3A4 = Cytochrome P450 3A4 (Homo sapiens, UniProt P08684); conditions: Potency;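 note: confirmatory qHTS run detecting inhibitors and substrates of CYP3A4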
Vero = experiment: cells; assay type: functional; conditions: Chlorocebus sabaeus
[2] = biological target: Heat shock protein HSP 90-alpha (Homo sapiens, UniProt P07900); assay type: functional, organism-based
[3] = biological target: T2, Heat shock factor protein 1 (Mus musculus, UniProt P38532); experiment: decrease of HSF1-responsive luciferase luminescence – cell-based, NIH3T3, dose retest, confirmation (AID 2382); assay type: functional;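 note: NIH3T3 fibroblasts with HSF1-driven luciferase reporter stressed by proteasome inhibitor MG132; luminescence from HSF1-driven luciferase expression after 8 hours of MG132 stress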
T2 sequence (P38532 whole entry): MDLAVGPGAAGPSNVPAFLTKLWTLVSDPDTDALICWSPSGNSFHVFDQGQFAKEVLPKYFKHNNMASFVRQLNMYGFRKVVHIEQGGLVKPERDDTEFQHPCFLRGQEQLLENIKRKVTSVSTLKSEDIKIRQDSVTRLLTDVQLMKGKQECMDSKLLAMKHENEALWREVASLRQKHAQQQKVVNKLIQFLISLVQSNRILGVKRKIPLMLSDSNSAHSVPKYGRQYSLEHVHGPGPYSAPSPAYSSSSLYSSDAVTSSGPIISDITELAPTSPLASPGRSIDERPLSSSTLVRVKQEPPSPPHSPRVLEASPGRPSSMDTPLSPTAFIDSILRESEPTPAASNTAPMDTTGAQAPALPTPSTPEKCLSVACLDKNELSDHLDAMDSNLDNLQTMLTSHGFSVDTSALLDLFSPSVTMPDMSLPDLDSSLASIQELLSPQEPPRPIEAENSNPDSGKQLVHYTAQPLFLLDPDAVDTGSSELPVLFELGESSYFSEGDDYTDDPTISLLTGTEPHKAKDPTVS

[4] = biological target: T3, Long-chain-fatty-acid--AMP ligase FadD28 (Mycobacterium tuberculosis, UniProt P9WQ59); experiment: Fluorescence polarization aasay to screen for inhibitors that compete for the binding of FadD28 to a bisubstrate Measured in Biochemical System Using Plate Reader - 2147-01_Inhibitor_Dose_CherryPick_Activity.; assay type: functional, Mycobacterium tuberculosis H37Rv
T3 sequence (P9WQ59 whole entry): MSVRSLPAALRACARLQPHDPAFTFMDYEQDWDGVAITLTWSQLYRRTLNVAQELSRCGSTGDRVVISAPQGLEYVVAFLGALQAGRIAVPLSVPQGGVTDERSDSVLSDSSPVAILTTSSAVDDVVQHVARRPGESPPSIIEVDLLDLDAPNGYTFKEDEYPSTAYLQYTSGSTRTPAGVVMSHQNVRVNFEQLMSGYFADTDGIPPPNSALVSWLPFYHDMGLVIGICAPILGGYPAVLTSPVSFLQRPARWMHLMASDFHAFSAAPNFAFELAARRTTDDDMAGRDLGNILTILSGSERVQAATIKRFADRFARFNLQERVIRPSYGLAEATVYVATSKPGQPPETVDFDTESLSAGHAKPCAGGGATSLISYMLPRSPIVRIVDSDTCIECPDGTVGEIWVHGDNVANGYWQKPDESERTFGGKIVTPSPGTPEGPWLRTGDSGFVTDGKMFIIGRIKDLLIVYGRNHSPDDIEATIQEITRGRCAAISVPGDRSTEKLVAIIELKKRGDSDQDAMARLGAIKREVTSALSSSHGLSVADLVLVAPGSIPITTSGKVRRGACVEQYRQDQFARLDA

[5] = biological target: Eukaryotic translation initiation factor 4E (Mus musculus, UniProt P63073); experiment: blockers of eIF4G binding by eIF4E – biochemical, TR-FRET, dose response (AID 855); assay type: functional;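 note: potency for disrupting eIF4E binding to eIF4GI seen as loss of FRET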
Nonstructural protein 1 = Nonstructural protein 1 (Influenza A virus, UniProt Q194T2); assay type: functional, Influenza A virus (A/California/07/2009(H1N1))
[6] = reduction of Shn3 3'UTR-driven luciferase in osteoblasts – cell-based, Clone20 osteoblasts, firefly luciferase, cherry-picked, dose response (AID 624132); assay type: functional;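 note: firefly luciferase luminescence from reporter carrying the Shn3 3'UTR in osteoblasts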
[7] = non-specific 3'UTR reporter inhibition in Clone20-Shn3RL – cell-based, Renilla luciferase, cherry-picked, counter-screen for Shn3 inhibitor project, dose response (AID 624133); assay type: functional
[8] = loss of viability in HepG2 cells – cell-based, CellTiter-Glo, cherry-picked, cytotoxicity control for Shn3 inhibitor project, dose response (AID 624134); assay type: functional
[9] = biological target: Glyceraldehyde-3-phosphate dehydrogenase (Homo sapiens, UniProt P04406)
HEK293 [10] = experiment: NOD2 signaling inhibitors in MDP-stimulated cells, cell-based, uHTS, luminescence (AID 2001); assay type: functional; conditions: Homo sapiens
HEK293 [11] = experiment: cells; assay type: functional, cell-based; conditions: Homo sapiens
[12] = viability of HCT116 lacking mutant beta-catenin – cell-based, human colon tumor, dose response (AID 1045); assay type: functional;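 note: HCT116 colon tumor cells with beta catenin knocked out; cells exposed to compound for 60 hours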
HEK293 [13] = experiment: cells; assay type: functional, cell-based; conditions: Homo sapiens; remark: listed apart in the source
HEK293 [14] = experiment: inhibition of NOD1-driven NF-kB reporter – cell-based, luminescence, uHTS, primary screen (AID 1578); assay type: functional; conditions: Homo sapiens
[15] = viability of PTEN-deleted HCT116 cells – cell-based, HCT116 PTEN knockout, dose response (AID 1047); assay type: functional;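 note: HCT116 colon tumor cells with PTEN knocked out; cells exposed to compound for 60 hours before readout; potency for loss of cell viability measured by luminescence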
cells [16] = assay type: functional, cell-based
INS1 = experiment: INS-1E survival protection against cytokine death – cell-based, luminescence, retest, dose response (AID 449756); assay type: functional; conditions: Rattus norvegicus;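 note: cell death triggered by IL-1 beta plus TNF-alpha plus IFN-gamma mixture; protective hits raise ATP signal compared with cytokine alone wells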
cells [17] = assay type: functional, cell-based; remark: listed apart in the source
Cytochrome P450 1A2 = biological target: T4, Cytochrome P450 1A2 (Homo sapiens, UniProt P05177);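 note: PubChem cytochrome P450 panel assay, CYP1A2 panel member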
T4 sequence (P05177 whole entry): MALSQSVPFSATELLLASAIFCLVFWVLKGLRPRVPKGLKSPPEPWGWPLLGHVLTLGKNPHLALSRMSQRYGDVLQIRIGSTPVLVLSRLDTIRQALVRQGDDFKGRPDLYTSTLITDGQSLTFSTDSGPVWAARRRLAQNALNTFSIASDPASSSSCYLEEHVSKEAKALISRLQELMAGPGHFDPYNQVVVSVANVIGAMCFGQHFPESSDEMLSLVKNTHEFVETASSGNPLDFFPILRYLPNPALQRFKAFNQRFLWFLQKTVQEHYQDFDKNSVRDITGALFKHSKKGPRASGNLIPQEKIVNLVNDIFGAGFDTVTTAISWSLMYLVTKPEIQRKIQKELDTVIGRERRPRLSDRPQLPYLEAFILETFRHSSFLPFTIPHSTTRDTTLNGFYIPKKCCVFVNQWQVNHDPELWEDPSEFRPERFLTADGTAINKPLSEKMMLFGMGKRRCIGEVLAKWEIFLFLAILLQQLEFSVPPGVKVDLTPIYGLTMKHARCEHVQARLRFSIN

[18] = blockers of HIV-1 ZM109 envelope-driven cell-cell fusion – HeLa effector, CEM target cells, luciferase, cherry-pick, dose response (AID 652058); assay type: functional, cell-based;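 note: luciferase signal from HIV-1 Env mediated cell-cell fusion of effector and target cells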
[19] = blockers of HIV-1 envelope-mediated cell-cell fusion – cherry-pick, dose response (AID 652057); assay type: functional, cell-based
[20] = HIV-1 AD8 envelope cell-cell fusion blockers – cherry-pick, dose response (AID 652062); assay type: functional, cell-based;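 note: luciferase signal from cell-cell fusion driven by HIV-1 clade B AD8 Env; potency is for inhibitors of fusion seen as a drop in luminescence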
Paired box protein Pax-8 = Paired box protein Pax-8 (Homo sapiens, UniProt Q06710); experiment: PAX8 transcriptional activity inhibition in RMG-I – RMG-I cells, luciferase, cherry-pick, dose response (AID 687027); assay type: functional, cell-based;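 note: luciferase reporter driven by Pax8 target thyroperoxidase promoter measured by SteadyGlo luminescence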
[21] = THP-1 cell cytotoxicity, dose response, cytotoxicity control for non-replicating M. tuberculosis project (AID 489025); assay type: functional
[22] = Vero E6 cell cytotoxicity, dose response, cytotoxicity control for non-replicating M. tuberculosis project, secondary assay (AID 492998); assay type: functional, VeroE6; conditions: Vero C1008
cells [23] = assay type: functional
[24] = biological target: T5, Sentrin-specific protease 8 (Homo sapiens, UniProt Q96LD8); assay type: functional
T5 sequence (Q96LD8 whole entry): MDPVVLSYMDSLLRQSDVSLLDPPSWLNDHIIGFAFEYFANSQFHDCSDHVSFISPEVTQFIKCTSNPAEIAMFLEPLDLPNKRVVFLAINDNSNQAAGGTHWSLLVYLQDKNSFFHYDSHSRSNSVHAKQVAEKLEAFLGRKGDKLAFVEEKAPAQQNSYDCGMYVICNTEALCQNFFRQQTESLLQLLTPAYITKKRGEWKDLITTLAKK

[25] = biological target: T5, Sentrin-specific protease 8; assay type: functional; remark: listed apart in the source

## CC(C)N1C/C(=C/c2cccnc2)C(=O)/C(=C/c2cccnc2)C1
[1]
  AC50: 14.2 µM (active)

## CC(=O)Nc1ccc(C2C(C)CCC3C(=O)N4C(CCC(C)[C@@H]4c4ccc(NC(C)=O)cc4)C(=O)N32)cc1 (stereo partly drawn)
Cytochrome P450 3A4
  AC50: 3.16 µM (inconclusive)

## N#Cc1c(NCCN)nc(-c2ccccc2)c2c1CCCC2
Vero
  CC50: 16.4 µM (active)

## O=S(=O)(Nc1nc2ccccc2nc1N1CCN(c2ccccn2)CC1)c1ccc(Cl)cc1
[2]
  AC50: 6.23 µM (active)

## O=C1Nc2ccc(Br)cc2/C1=C/C1CC=CCC1 (stereo not drawn)
[2]
  AC50: 8.03 µM (active)

## COc1cccc(NC(=O)Cn2c(=O)oc3cc(S(=O)(=O)N4CCCC4)ccc32)c1
[3]
  EC50: > 195 µM (not active)
[4]
  AC50: 44.5 µM (active)

## CCNCC(O)COCC(O)CNCC (stereo not drawn)
[5]
  IC50: > 64 µM (inactive)

## Cc1ccc(S(=O)(=O)CCC(=O)NCc2ccccc2Cl)cc1
[5]
  IC50: > 64 µM (inactive)

## O=C(Nc1nc(-c2ccccn2)cs1)C1COc2ccccc2O1 (stereo not drawn)
Nonstructural protein 1
  IC50: 10.7 µM (active)
[6]
  AC50: 5.81 µM (active)
[7]
  AC50: 4.69 µM (active)
[8]
  AC50: 47.6 µM (active)
[2]
  AC50: 5.85 µM (active)
Vero
  CC50: 10 µM (active)

## O=C(O)CS(=O)(=O)c1ccc(-c2ccc(S(=O)(=O)CC(=O)O)cc2)cc1
[9]
  IC50: > 100 µM (not active)

## CCCn1c(-c2ccc(F)cc2)nc2c(NC3CC4CCC(C3)N4C)nc(C)nc21 (stereo not drawn)
Cytochrome P450 3A4
  AC50: 15.8 µM (inconclusive)

## COc1ccc(C(=O)Cn2nnc(-c3ccccc3F)n2)cc1
[4]
  AC50: > 100 µM (inactive)

## CCOc1cc(C=C(C(=O)OC)C(=O)OC)ccc1OCc1ccc([N+](=O)[O-])cc1
HEK293 [10]
  IC50: 5.8 µM (active)
HEK293 [11]
  IC50: > 20 µM (inactive)
[12]
  EC50: 16.9 µM (active)
HEK293 [13]
  IC50: 3.72 µM (active)
HEK293 [14]
  EC50: 11.9 µM (active)
[15]
  EC50: 18 µM (active)

## COc1ccc(C(NC(C)=O)c2ccc3cccnc3c2O)c(OC)c1 (stereo not drawn)
[1]
  AC50: 5.15 µM (active)
[6]
  AC50: 1.74 µM (active)
Cells [16]
  EC50: 8.62 µM (active)
[7]
  AC50: 2.16 µM (active)
[8]
  AC50: 2.68 µM (active)
INS1
  AC50: 1.09 µM (active)
Cells [17]
  EC50: > 350 µM (not active)

## O=C(O)c1ccccc1C(=O)Nc1nccs1
[5]
  IC50: > 64 µM (inactive)
Cytochrome P450 1A2
  AC50: 15.8 µM (inconclusive)

## C[C@H]1CN([C@@H](C)CO)C(=O)Cc2cc(NC(=O)Cc3cn(C)c4ccccc34)ccc2O[C@H]1CN(C)S(=O)(=O)c1ccccc1
[18]
  AC50: 9.19 µM (active)
[19]
  AC50: 12.7 µM (active)
[20]
  AC50: 23.5 µM (active)

## C[C@@H]1CN([C@@H](C)CO)C(=O)c2cc(NC(=O)c3ccccc3)ccc2O[C@@H](C)CCCCO[C@H]1CN(C)Cc1ccc(C(F)(F)F)cc1
Paired box protein Pax-8
  AC50: 10.1 µM (active)

## C[C@@H]1CN([C@@H](C)CO)C(=O)Cc2cc(N(C)C)ccc2O[C@H]1CN(C)Cc1ccc(Oc2ccccc2)cc1
Paired box protein Pax-8
  AC50: 11 µM (active)

## Cc1ccc(-c2nn(-c3ccccc3)cc2/C=N/NC(=O)c2ccncc2)o1
[21]
  CC50: 32.8 µM (active)
[22]
  CC50: > 20 µM (active)
Cells [23]
  IC50: 0.22 µM (active)

## O=[N+]([O-])c1ccc(/C=N/c2ccc(Cl)c([N+](=O)[O-])c2)s1
[2]
  AC50: 2.99 µM (active)
[24]
  IC50: 3.07 µM (active)
[25]
  IC50: 2.35 µM (active)

## O=C(/C=C/c1ccco1)c1ccccc1O
[5]
  IC50: 50 µM (inactive)

## O=C(/C=C/c1ccccc1)c1ccc(O)cc1O [2',4'-DIHYDROXYCHALCONE]
Cytochrome P450 3A4
  AC50: 1.58 µM (inconclusive)

## O=c1cc(-c2ccccc2)oc2c(O)c(O)ccc12 [7,8-DIHYDROXYFLAVONE]
Cytochrome P450 3A4
  AC50: 39.8 µM (inconclusive)

## O=C1C=C(O)C(=O)c2ccccc21 [LAWSONE]
Cytochrome P450 3A4
  AC50: 25.1 µM (inconclusive)
